For 15 compounds, EC50 and Ki results are on record in patent publication US8188135B2, “Compounds as cannabinoid receptor ligands” (priority 2008, dated 2012).

Read-outs that look alike come from different tables or passages of the source.

Test [1] deals with T1, rat CB2 (Rattus norvegicus, UniProt Q9QZN9).
T1 sequence (Q9QZN9 1-360): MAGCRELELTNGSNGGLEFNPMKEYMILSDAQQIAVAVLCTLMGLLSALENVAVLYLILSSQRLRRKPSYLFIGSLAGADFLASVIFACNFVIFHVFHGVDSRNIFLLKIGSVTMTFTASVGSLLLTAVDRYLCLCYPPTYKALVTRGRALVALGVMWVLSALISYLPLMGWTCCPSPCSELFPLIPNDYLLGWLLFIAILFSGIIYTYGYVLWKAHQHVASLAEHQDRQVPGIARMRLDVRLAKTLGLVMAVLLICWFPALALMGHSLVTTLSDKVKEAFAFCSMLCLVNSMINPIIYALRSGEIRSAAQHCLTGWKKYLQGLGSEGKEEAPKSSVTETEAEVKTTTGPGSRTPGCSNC
Briefly: rat CB2 cyclase functional assay (HitHunter cAMP). Set-up: expressed in transfected cells; host or cells: HEK. It is filed as cell-based. The note with it: HEK cells, forskolin 18 μM. The procedure:
(§1) The cyclase functional assays were performed using the HitHunter™ cAMP assay kit from DiscoveRx (Fremont, Calif.) according to vendor's protocol. Briefly, HEK cells expressing CB2 or CB1 receptors (rat or human) were detached using cell dissociation buffer (Invitrogen, Carlsbad, Calif.), dispersed and placed in suspension at 10,000 cells per well in 96 well plates prior to the assay. Cell suspensions were incubated at 37° C. for 20 min with variable concentrations of test ligands and or 10 μM CP 55,940-positive control in the presence of a fixed concentration of forskolin (18 μM for rat CB2 and 37 μM for rat CB1) in Dulbescco's phosphate-buffered saline (Invitrogen, Carlsbad, Calif.) supplemented with bovine serum albumin (0.01% final concentration). The reactions were terminated by the addition of lysis buffer and the luminescence was detected following the procedure according to the manufacturer's instructions. EC50 values were calculated using sigmoidal dose-response curve fitting from Prism (GraphPad).

Another test has as its target T2, Rat CB1 (Rattus norvegicus, UniProt P20272).
T2 construct: expressed in transfected cells; host or cells: HEK
Briefly: rat CB1 cyclase functional assay (HitHunter cAMP). It is filed as cell-based. The note with it: HEK cells, forskolin 37 μM. Here is the method: as §1

For another test, the target named is T3, human CB2 receptors (Homo sapiens, UniProt P34972).
T3 construct: expressed in transfected cells; host or cells: HEK293
Nature of the test: human CB2 radioligand binding assay ([3H]CP 55,940 competition). As to conditions: HEK293 membranes, 0.5 nM [3H]CP 55,940. The procedure, abridged:
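Displacement of 0.5 nM [3H]CP 55,940 over 0.01 nM-10 μM test compound, measured on human CB2 membranes from stably transfected HEK293 cells. Incubation 90 min at 30 °C in Tris/EDTA/MgCl2/BSA, pH 7.4, then filter-bound radioactivity counted; 10 μM unlabeled CP 55,940 defined nonspecific binding.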

Test [2] has as its target T1, rat CB2. Nature of the test: rat CB2 radioligand binding assay ([3H]CP 55,940 competition). Details: expressed in transfected cells; host or cells: HEK293. The note with it: HEK293 membranes, 0.5 nM [3H]CP 55,940. In a few lines: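 Competition binding against 0.5 nM [3H]CP 55,940 (pH 7.4 buffer with 0.5 mg/mL BSA, 30 °C, 45 min), with displacers spanning 0.01 nM–10 μM at five concentrations. Receptor source: stably transfected HEK293 membranes, 20 μg/well. Nonspecific binding defined by 10 μM unlabeled CP 55,940; readout by filtration and counting.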

[3] abbreviates: read-out: rat CB2 cyclase (EC50).
The mark [4] stands for this setting: read-out: Rat CB1 cyclase (EC50).

T3 sequence (P34972 whole entry): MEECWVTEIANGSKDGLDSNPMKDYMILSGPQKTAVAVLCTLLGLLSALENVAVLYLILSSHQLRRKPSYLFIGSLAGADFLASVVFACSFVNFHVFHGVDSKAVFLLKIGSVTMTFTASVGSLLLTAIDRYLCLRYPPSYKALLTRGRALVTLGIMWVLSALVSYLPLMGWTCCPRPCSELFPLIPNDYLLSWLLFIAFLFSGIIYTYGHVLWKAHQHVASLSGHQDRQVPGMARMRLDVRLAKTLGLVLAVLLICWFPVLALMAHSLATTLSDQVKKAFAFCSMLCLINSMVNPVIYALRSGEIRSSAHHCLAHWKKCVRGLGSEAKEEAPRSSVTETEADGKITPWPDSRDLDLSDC
T2 sequence (P20272 whole entry): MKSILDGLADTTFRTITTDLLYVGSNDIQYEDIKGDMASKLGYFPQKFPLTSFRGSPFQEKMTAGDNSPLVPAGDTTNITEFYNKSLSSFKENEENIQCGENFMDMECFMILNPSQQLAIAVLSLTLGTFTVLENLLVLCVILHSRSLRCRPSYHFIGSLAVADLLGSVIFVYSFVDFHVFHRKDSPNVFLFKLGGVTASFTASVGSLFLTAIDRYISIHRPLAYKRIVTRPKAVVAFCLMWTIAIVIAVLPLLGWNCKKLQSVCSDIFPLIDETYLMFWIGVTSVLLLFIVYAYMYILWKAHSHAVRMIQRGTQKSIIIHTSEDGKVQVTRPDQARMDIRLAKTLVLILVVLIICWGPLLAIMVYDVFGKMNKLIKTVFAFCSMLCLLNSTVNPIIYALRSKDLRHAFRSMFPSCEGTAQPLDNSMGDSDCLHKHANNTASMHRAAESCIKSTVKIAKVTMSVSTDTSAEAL

`CN1CCC[C@H]1COc1ccc(C(F)(F)F)cc1C(=O)/N=c1\oc(C(C)(C)C)cn1C[C@H]1CCCO1` [Example 32, N-[(2Z)-5-tert-butyl-3-[(2R)-tetrahydrofuran-2-ylmethyl]-1,3-oxazol-2(3H)-ylidene]-2-{[(2S)-1-methylpyrrolidin-2-yl]methoxy}-5-(trifluoromethyl)benzamide]: the EC50 is 0.6 nM on rat CB2 [1] (rat CB2 cyclase (EC50, nM)) and 3870 nM at Rat CB1 (Rat CB1 cyclase (EC50, nM)). In addition, the inhibitory constant (Ki) at human CB2 receptors (human CB2 (Ki, nM)) is 88 nM; on rat CB2 [2] (rat CB2 (Ki, nM)), 75 nM.
For `Cn1c(C(C)(C)C)c/c(=N\C(=O)c2cc(C(F)(F)F)ccc2OCCCS(C)(=O)=O)n1C[C@H]1CCCO1` [Example 60, N-{(3E)-5-tert-butyl-1-methyl-2-[(2R)-tetrahydrofuran-2-ylmethyl]-1,2-dihydro-3 H-pyrazol-3-ylidene}-2-[3-(methylsulfonyl)propoxy]-5-(trifluoromethyl)benzamide], the EC50 at rat CB2 [1] (rat CB2 cyclase (EC50, nM)) was 0.26 nM; on Rat CB1 (Rat CB1 cyclase (EC50, nM)), greater than 27000 nM. The Ki on human CB2 receptors (human CB2 (Ki, nM)) came out at 92 nM; at rat CB2 [2] (rat CB2 (Ki, nM)), 42 nM.
On to `Cn1c(C(C)(C)C)c/c(=N\C(=O)c2cc(C(F)(F)F)ccc2OC[C@@H]2COC(C)(C)O2)n1C[C@H]1CCCO1` [Example 16, N-{(3E)-5-tert-butyl-1-methyl-2-[(2R)-tetrahydrofuran-2-ylmethyl]-1,2-dihydro-3H-pyrazol-3-ylidene}-2-{[(4R)-2,2-dimethyl-1,3-dioxolan-4-yl]methoxy}-5-(trifluoromethyl)benzamide], for which the half-maximal effective concentration (EC50) was 0.47 nM on rat CB2 [1] (rat CB2 cyclase (EC50, nM)) and greater than 27000 nM at Rat CB1 (Rat CB1 cyclase (EC50, nM)). In addition, the Ki at human CB2 receptors (human CB2 (Ki, nM)) came out at 40 nM; at rat CB2 [2] (rat CB2 (Ki, nM)) it was 23 nM.
As to `Cn1c(C(C)(C)C)c/c(=N\C(=O)c2cc(C(F)(F)F)ccc2OC[C@@H]2C=CCO2)n1C[C@H]1CCCO1` [Example 25, N-{(3E)-5-tert-1-methyl-2-[(2R)-tetrahydrofuran-2-ylmethyl]-1,2-dihydro-3H-pyrazol-3-ylidene}-2-[(2S)-2,5-dihydrofuran-2-ylmethoxy]-5-(trifluoromethyl)benzamide], the EC50 at rat CB2 [1] (setting [3]) was 0.3 nM; on Rat CB1 (setting [4]) it was 531 nM. Besides, the values for the inhibition constant (Ki) on human CB2 receptors (read-out: human CB2 (Ki)) and at rat CB2 [2] (read-out: rat CB2 (Ki)) were 31 nM and 20 nM, respectively.
Regarding `Cn1c(C(C)(C)C)c/c(=N\C(=O)c2cc(C(F)(F)F)ccc2OC[C@@H]2CCC(=O)N2)n1C[C@H]1CCCO1` [Example 12, N-{(3E)-5-tert-butyl-1-methyl-2-[(2R)-tetrahydrofuran-2-ylmethyl]-1,2-dihydro-3H-pyrazol-3-ylidene}-2-{[(2S)-5-oxopyrrolidin-2-yl]methoxy}-5-(trifluoromethyl)benzamide], the concentration for a half-maximal effect (EC50) on rat CB2 [1] (rat CB2 cyclase (EC50, nM)) is 0.79 nM; on Rat CB1 (Rat CB1 cyclase (EC50, nM)), greater than 27000 nM. In addition, the Ki at human CB2 receptors (human CB2 (Ki, nM)) was 99 nM; at rat CB2 [2] (rat CB2 (Ki, nM)) it was 46 nM.
For `Cn1c(C(C)(C)C)c/c(=N\C(=O)c2cc(C(F)(F)F)ccc2OCC2CCS(=O)(=O)C2)n1C[C@H]1CCCO1` (stereo partly drawn) [Example 6, N-{(3E)-5-tert-butyl-1-methyl-2-[(2R)-tetrahydrofuran-2-ylmethyl]-1,2-dihydro-3H-pyrazol-3-ylidene}-2-[(1,1-dioxidotetrahydrothien-3-yl)methoxy]-5-(trifluoromethyl)benzamide], the EC50 at rat CB2 [1] (rat CB2 cyclase (EC50, nM)) was 7.5 nM; at Rat CB1 (Rat CB1 cyclase (EC50, nM)) it was 11200 nM. For the same compound, the Ki amounted to 203 nM at human CB2 receptors (human CB2 (Ki, nM)) and 78 nM on rat CB2 [2] (rat CB2 (Ki, nM)).
In the case of `CN1CCC[C@H]1COc1ccc(C(F)(F)F)cc1C(=O)/N=c1\cc(C(C)(C)C)on1C[C@H]1CCCO1` [Example 39, N-[(3E)-5-tert-butyl-2-[(2R)-tetrahydrofuran-2-ylmethyl]isoxazol-3(2H)-ylidene]-2-{[(2S)-1-methylpyrrolidin-2-yl]methoxy}-5-(trifluoromethyl)benzamide], the concentration for a half-maximal effect (EC50) stood at 0.63 nM on rat CB2 [1] (rat CB2 cyclase (EC50, nM)) and 2620 nM on Rat CB1 (Rat CB1 cyclase (EC50, nM)). The Ki on human CB2 receptors (human CB2 (Ki, nM)) is 62 nM; on rat CB2 [2] (rat CB2 (Ki, nM)), 46 nM.
Consider `Cn1c(C(C)(C)C)c/c(=N\C(=O)c2cc(C(F)(F)F)ccc2OCCNS(C)(=O)=O)n1C[C@H]1CCCO1` [Example 45, N-{(3E)-5-tert-butyl-1-methyl-2-[(2R)-tetrahydrofuran-2-ylmethyl]-1,2-dihydro-3H-pyrazol-3-ylidene}-2-{2-[(methylsulfonyl)amino]ethoxy}-5-(trifluoromethyl)benzamide], for which the EC50 on rat CB2 [1] (rat CB2 cyclase (EC50, nM)) amounted to 0.47 nM; at Rat CB1 (Rat CB1 cyclase (EC50, nM)), 4940 nM. Further, the inhibition constant Ki at human CB2 receptors (human CB2 (Ki, nM)) came to 19 nM; at rat CB2 [2] (rat CB2 (Ki, nM)) it was 7.8 nM.
`Cn1c(C(C)(C)C)c/c(=N\C(=O)c2cc(C(F)(F)F)ccc2OC[C@@H]2CCC(C)(C)O2)n1C[C@H]1CCCO1` [Example 52]: the values for the half-maximal effective concentration (EC50) on rat CB2 [1] (setting [3]) and at Rat CB1 (setting [4]) were 0.93 nM and greater than 27000 nM, respectively. In addition, the Ki at human CB2 receptors (read-out: human CB2 (Ki)) turned out to be 10 nM; on rat CB2 [2] (read-out: rat CB2 (Ki)), 19 nM.
Take `Cn1c(C(C)(C)C)c/c(=N\C(=O)c2cc(C(F)(F)F)ccc2OCC[C@H]2COC(C)(C)O2)n1C[C@H]1CCCO1` [Example 17, N-{(3E)-5-tert-butyl-1-methyl-2-[(2R)-tetrahydrofuran-2-ylmethyl]-1,2-dihydro-3H-pyrazol-3-ylidene}-2-{2-[(4S)-2,2-dimethyl-1,3-dioxolan-4-yl]ethoxy}-5-(trifluoromethyl)benzamide]: the EC50 at rat CB2 [1] (rat CB2 cyclase (EC50, nM)) is 0.7 nM; at Rat CB1 (Rat CB1 cyclase (EC50, nM)), greater than 27000 nM. Besides, the Ki at human CB2 receptors (human CB2 (Ki, nM)) is 25 nM; on rat CB2 [2] (rat CB2 (Ki, nM)), 36 nM.
As to `Cn1c(C(C)(C)C)c/c(=N\C(=O)c2cc(C(F)(F)F)ccc2OCCC2=CCCC2)n1C[C@H]1CCCO1` [Example 53, N-{(3E)-5-tert-butyl-1-methyl-2-[(2R)-tetrahydrofuran-2-ylmethyl]-1,2-dihydro-3H-pyrazol-3-ylidene}-2-(2-cyclopent-1-en-1-ylethoxy)-5-(trifluoromethyl)benzamide], the concentration giving a half-maximal response (EC50) at rat CB2 [1] (rat CB2 cyclase (EC50, nM)) is 2.7 nM; at Rat CB1 (Rat CB1 cyclase (EC50, nM)) it was 1970 nM. Also, the Ki came out at 1.5 nM at human CB2 receptors (human CB2 (Ki, nM)) and 2.8 nM at rat CB2 [2] (rat CB2 (Ki, nM)).
The corresponding values for `CC1CCC(COc2ccc(C(F)(F)F)cc2C(=O)N=c2cc(C(C)(C)C)n(C)n2CC2CCCO2)O1` (single isomer, unassigned) [Example 36] are 2.7 nM, 8410 nM, 74 nM and 108 nM.
`Cn1c(C(C)(C)C)c/c(=N\C(=O)c2cc(C(F)(F)F)ccc2OC[C@@H]2CCN2S(C)(=O)=O)n1CC1CC1` [Example 63, N-[(3E)-5-tert-butyl-2-(cyclopropylmethyl)-1-methyl-1,2-dihydro-3H-pyrazol-3-ylidene]-2-{[(2S)-1-(methylsulfonyl)azetidin-2-yl]methoxy}-5-(trifluoromethyl)benzamide]: the EC50 on rat CB2 [1] (rat CB2 cyclase (EC50, nM)) was 2.5 nM; on Rat CB1 (Rat CB1 cyclase (EC50, nM)), greater than 27000 nM. The Ki on human CB2 receptors (human CB2 (Ki, nM)) was determined as 301 nM; at rat CB2 [2] (rat CB2 (Ki, nM)), 139 nM.
As for `Cn1c(C(C)(C)C)c/c(=N\C(=O)c2cc(C(F)(F)F)ccc2NC[C@@H]2CCCO2)n1C[C@H]1CCCO1` [Example 21, N-{(3E)-5-tert-butyl-1-methyl-2-[(2R)-tetrahydrofuran-2-ylmethyl]-1,2-dihydro-3H-pyrazol-3-ylidene}-2-{[(2S)-tetrahydrofuran-2-ylmethyl]amino}-5-(trifluoromethyl)benzamide], the EC50 was 0.19 nM at rat CB2 [1] (rat CB2 cyclase (EC50, nM)) and 901 nM on Rat CB1 (Rat CB1 cyclase (EC50, nM)). For the same compound, the Ki was 0.9 nM on human CB2 receptors (human CB2 (Ki, nM)) and 0.6 nM at rat CB2 [2] (rat CB2 (Ki, nM)).
Take `Cn1c(C(C)(C)C)c/c(=N\C(=O)c2cc(C(F)(F)F)ccc2OCCNC(=O)OC(C)(C)C)n1C[C@H]1CCCO1` [Example 41, tert-butyl 2-[2-[({(3E)-5-tert-butyl-1-methyl-2-[(2R)-tetrahydrofuran-2-ylmethyl]-1,2-dihydro-3H-pyrazol-3-ylidene}amino)carbonyl]-4-(trifluoromethyl)phenoxy]ethylcarbamate]: the values for the EC50 on rat CB2 [1] (setting [3]) and on Rat CB1 (setting [4]) were 1000 nM and greater than 27000 nM, respectively. Also, the inhibition constant (Ki) on human CB2 receptors (human CB2 (Ki, nM)) was 96 nM; at rat CB2 [2] (rat CB2 (Ki, nM)), 21 nM.
